Ends that are not written are not given here.
What was measured:
[1] = tested on: 5,6-dihydroxyindole-2-carboxylic acid oxidase; Tyrp1; test: Targeted proteomics in melanoma cells: Tyrp1; assay type: cell-based, Mus musculus; conditions: melanoma cells treated with octapeptide 50 μg/mL, 48 h, vs control; LC-MS/MS proteomics
Experimental: (§1) Although using the tyrosinase enzyme extracted from a mushroom for an in vitro tyrosinase inhibitory assay has been widely studied as a routine screening for tyrosinase inhibition, tyrosinase from the mushroom is located in the cytoplasm and is different from the mammalian tyrosinase that is found on the membrane of melanocytes. Therefore, cell-based assays are also usually utilized to identify the potential tyrosinase inhibitor. In our study, the effects of the octapeptide at 50 μg/mL in melanoma cells was investigated by a proteomics approach. […]
(§2) The Mus musculus skin melanoma cell line (B16-F10 ATCC, CRL-6475) and Cercopithecus aethiops kidney normal cell line (Vero ATCC, CCL-81) were used to explore the cell cytotoxicity. The effect of the octapeptide on the skin was evaluated in skin carcinoma cells. […] The cell viability was analyzed using the MTT (3-(4,5-dimethylthiazol-2-yl)-2,5-diphenyltetrazolium bromide) assay. […] After incubation for 24 h, the cell viability was measured by the optical absorbance at 630 and 570 nm using a microplate reader and transformed into the percentage of cell survival. […]
(§3) The mzXML data were evaluated by the relative comparison of the peak intensities of each peptide ion in all datasets by DeCyder MS Differential Analysis software version 2.0 (GE Healthcare Co., Boston, MA, USA). […]

[2] = Ferric reducing antioxidant power (FRAP) assay; conditions: octapeptide 1 mg/mL, 10 µL; 30 min room temperature in the dark, absorbance 593 nm; mean ± SD, n = 3
Experimental: Since the antioxidant activity of a substance should be determined by different assays to study the radical scavenging mechanisms, the in vitro radical scavenging potential of the synthesized octapeptide was determined by three different common methods: 2,2-diphenyl-1-picrylhydrazyl (DPPH), 2,2′-azino-bis(3-ethylbenzothiazoline-6-sulfonate) (ABTS), and ferric reducing antioxidant power (FRAP) assays. […] The scavenging activities were calculated to be 0.121 ± 0.01 AsEAC and 0.173 ± 0.03 GaEAC for the DPPH and the ABTS assay, respectively.
For the DPPH scavenging activity, 10 µL of the octapeptide (1 mg/mL) was mixed with 200 µL DPPH solution (0.2 mM in methanol). […] The DPPH scavenging activity of the samples was expressed as the ascorbic acid equivalent antioxidant capacity (AsEAC). For the ABTS scavenging activity, ABTS radical solution (7 mM ABTS stock solution with 2.45 mM potassium persulfate) was diluted in 5 mM phosphate buffer saline (Gibco, Waltham, MA, USA), pH 7.4, to acquire an absorbance of 0.50 at 734 nm before performing the assay. […] The absorbance of the mixture was evaluated at 734 nm. The ABTS scavenging activity of the samples was expressed as the gallic equivalent antioxidant capacity (GaEAC). […] The absorbance was measured at 593 nm. The FRAP scavenging activity of the samples was expressed as FeSO4 molar equivalents.

[3] = tested on: Ras-related protein Rab-7L1; Rab29; test: Targeted proteomics in melanoma cells: Rab29; assay type: cell-based, Mus musculus; conditions: melanoma cells treated with octapeptide 50 μg/mL, 48 h, vs control; LC-MS/MS proteomics
Experimental: as §1, §2, §3

mushroom tyrosinase = test: In vitro tyrosinase inhibition assay (dopachrome, absorbance at 475 nm); assay type: biochemical; conditions: octapeptide 0.05 mg/mL
Experimental: To understand how the octapeptide modulates melanogenic enzymes, the activity of tyrosinase in the presence of the peptide was measured by the colorimetric assay. We used the time-dependent assay to confirm that the inhibition reaction occurred with dopachrome accumulation (absorbance at 475 nm). The time-dependent tyrosinase inhibition and the inhibition percentage of the octapeptide at a 50 ug/mL concentration are shown in Figure 2. The inhibitory effect of the octapeptide was determined against mushroom tyrosinase. The mixture of 10 µL of tyrosinase (20 enzyme unit/mL) in 50 mM phosphate buffer, pH 6.8, was added to 96-well plates containing 10 µL of the octapeptide (final concentration = 0.05 mg/mL), then 180 µL of 1 mM L-DOPA was added to start the reaction. […] Monitoring the inhibitory activity by measuring the absorbance at 475 nm for 60 min in a kinetic manner (reading every 1 min) using a microplate reader (Synergy H1, Biotek Inc., Winooski, VT, USA). The tyrosinase inhibitory activity was expressed as a percentage of inhibition at the end-point reaction (t = 60 min) by the equation. […] where Abssample is the absorbance of the reaction with the octapeptide and Absblank denotes the absorbance of the reaction without the testing sample (a buffer in each assay was added instead of the testing sample).

[4] = tested on: L-dopachrome tautomerase; Dct; test: Targeted proteomics in melanoma cells: Dct; assay type: cell-based, Mus musculus; conditions: melanoma cells treated with octapeptide 50 μg/mL, 48 h, vs control; LC-MS/MS proteomics
Experimental: as §1, §2, §3

PVRSSNCA [octapeptide, Proline-Valine-Arginine-Serine-Serine-Asparaine-Cysteine-Alanine]
Relative Expression (Fold) of Tyrp1 [1]: 0.5034 Fold | FRAP reductant ability, FeSO4 molar equivalents [2]: 2.21 ± 0.23 mM equivalent to FeSO4 | Relative Expression (Fold) of Rab29 [3]: 2.0646 Fold | tyrosinase inhibitory effect at end point (60 min) (mushroom tyrosinase; 1 mM L-DOPA, 50 mM phosphate buffer pH 6.8, 37 °C, t = 60 min, mean ± SD, n = 3): 13.48 ± 2.12% | tyrosinase inhibitory effect during the first 30 min of the reaction (mushroom tyrosinase; time-dependent assay, rate similar to control): not observed | Relative Expression (Fold) of Dct [4]: 2.0460 Fold

From publication PMC9230030, “Discovery of a Multifunctional Octapeptide from Lingzhi with Antioxidant and Tyrosinase Inhibitory Activity” (Pharmaceuticals, 2022)
